Measurements from US20140314847A1, “CONTROLLED RELEASE PHARMACEUTICAL COMPOSITIONS WITH IMPROVED BIOAVAILABILILTY” (priority 2004, published 2014).

Experiment: In vitro dissolution study of acyclovir solubilized using various solubilizers
Type: physicochemical
Procedure: A solubilizing agent was melted in a container and a drug was added and mixed intimately and cooled to room temperature. The mass was sifted through an appropriate sieve to get a uniform blend. A blend of the drug was prepared using polyethylene glycol 6000, Lutrol F127 and Gelucire (50/13). Solid dispersion of the drug with various solubilizing agents like polyethylene glycol 6000, Lutrol F127 and Gelucire 50/13 were studied for their solubility in 900 ml distilled water. […] Also with Lutrol in ratio (1:0.5 to 1:2) a three-fold increase in instantaneous solubility was observed. These samples were taken for dissolution study and the result obtained are provided in Table 3 hereunder and graphically depicted in Figure-I: […]

% drug dissolved (0 min): 0%
% drug dissolved (5 min): 16.03%
% drug dissolved (10 min): 19.58%
% drug dissolved (15 min): 24.09%
% drug dissolved (20 min): 29.34%
% drug dissolved (30 min): 33.89%
% drug dissolved (45 min): 47.11%
% drug dissolved (60 min): 53.78%
% drug dissolved (90 min): 68.87%
% drug dissolved (120 min): 75.40%
Compound: Nc1nc2c(ncn2COCCO)c(=O)[nH]1 [Acyclovir as is, Acyclovir]
